Data: patent publication US20120165319A1, “INHIBITORS OF INTERLEUKIN-1 BETA CONVERTING ENZYME” (VERTEX PHARMACEUTICALS INCORPORATED, priority 1995, published 2012)
Read-outs that look alike come from different tables or passages of the source.

Key:
[1] = target: T1, ICE (Homo sapiens, UniProt P29466); test: Enzyme assay with UV-visible substrate (visible ICE assay, Succinyl-Tyr-Val-Ala-Asp-pNitroanilide); format: biochemical
T1 sequence (P29466 120-297 limits assumed): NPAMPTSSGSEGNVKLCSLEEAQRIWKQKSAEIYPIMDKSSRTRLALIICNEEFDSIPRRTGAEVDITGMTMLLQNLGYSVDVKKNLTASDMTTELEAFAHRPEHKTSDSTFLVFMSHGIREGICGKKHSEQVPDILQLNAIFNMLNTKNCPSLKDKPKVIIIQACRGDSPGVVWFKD
T1 sequence (P29466 317-404 limits assumed): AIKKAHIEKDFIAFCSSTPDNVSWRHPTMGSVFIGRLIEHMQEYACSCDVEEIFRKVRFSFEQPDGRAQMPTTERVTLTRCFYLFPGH
How it was run: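 Human ICE was preincubated with inhibitor in DMSO and buffer for 15 min at room temperature, then succinyl-Tyr-Val-Ala-Asp-pNA was added. pNA release was followed at 405-603 nm for 20 min at 37° C. Ki and inhibition mode came from fitting rates to standard kinetic equations.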

[2] = test system: IL-1β, human whole blood; test: Whole blood assay for IL-1β production; format: cell-based; conditions: read-out: Whole human blood IC50
How it was run: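 Human whole blood collected on Na2EDTA was treated with serially diluted compound in saline and then stimulated with LPS at 5.0 ng/ml final, for 16-18 h at 30 °C, in duplicate or triplicate. Plasma IL-1β was measured by ELISA at 1:200 dilution.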

[3] = In vivo rat clearance assay; conditions: for clearance: plasma, iv
How it was run: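 Rats cannulated a day beforehand received 10–20 mg/kg by intravenous jugular dosing in propylene glycol/saline with 100 mM sodium bicarbonate. Carotid blood was sampled from 0 to 90 min, and plasma was extracted with acetonitrile/0.1% TFA for HPLC quantification. Clearance from non-linear regression pharmacokinetic analysis.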

[4] = Homo sapiens, * = values obtained upon reassay
[5] = * = values obtained upon reassay

| Compound | Ki ([1]; Table 17) [nM] | IC50 ([2]; Homo sapiens, Table 17) [nM] | clearance ([3]; Table 17) [mL/min/kg] | Ki ([1]; Table 5) [nM] | IC50 [2, 4] [nM] | clearance ([3]; 10-20 mg/kg) [mL/min/kg] | IC50 ([2]; Table 17) [nM] | Clearance Rat, i.v. ([3]; Table 17) [mL/min/kg] | IC50 [2, 5] [nM] |
| --- | --- | --- | --- | --- | --- | --- | --- | --- | --- |
| O=C1C[C@H](NC(=O)[C@@H]2CCCN3C(=O)CC[C@H](NC(=O)c4cccc5ccccc45)C(=O)N23)C(OCc2ccccc2)O1 (stereo partly drawn) [Compound 213v, [1S,9S(2RS,3S)]N-(2-Benzyloxy-5-oxotetrahydrofuran-3-yl)-6,10-dioxo-9-(naphth-1-oylamino)-1,2,3,4,7,8,9,10-octahydro-6H-pyridazino[1,2-a][1,2]diazepine-1-carboxamide] | 0.5 | 1100 | 23 | – | – | – | – | – | – |
| O=C[C@H](CC(=O)O)NC(=O)[C@@H]1CCCN2C(=O)CC[C@H](NC(=O)c3ccccc3)C(=O)N12 [Compound 214e, [3S(1S,9S)]3-(9-Benzoylamino-6,10-dioxo-1,2,3,4,7,8,9,10-octahydro-6H-pyridazino[1,2-a][1,2]-diazepine-1-carboxamido)-4-oxobutanoic acid] | – | – | – | 7.5 | 1300 | 12 | – | – | – |
| O=C[C@H](CC(=O)O)NC(=O)[C@@H]1CCCN2C(=O)CC[C@H](NC(=O)c3cc(Cl)c(O)c(Cl)c3)C(=O)N12 [Compound 214k, [3S(1S,9S)]3-(9-(3,5-Dichloro-4-hydroxybenzoyl)amino-6,10-dioxo-1,2,3,4,7,8,9,10-octahydro-6H-pyridazino[1,2-a][1,2]diazepine-1-carboxamido)-4-oxobutanoic acid] | 0.2 | 580 | 22 | – | – | – | – | – | – |
| CC(=O)Nc1ccc(C(=O)N[C@H]2CCC(=O)N3CCC[C@@H](C(=O)N[C@H](C=O)CC(=O)O)N3C2=O)cc1Cl [Compound 214l, [3S(1S,9S)]3-(9-(3-Chloro-4-acetamidobenzoyl)amino-6,10-dioxo-1,2,3,4,7,8,9,10-octahydro-6H-pyridazino[1,2-a][1,2]diazepine-1-carboxamido)-4-oxobutanoic acid] | 6 | 1100 | 12 | – | – | – | – | – | – |
| COc1c(Cl)cc(C(=O)N[C@H]2CCC(=O)N3CCC[C@@H](C(=O)N[C@H](C=O)CC(=O)O)N3C2=O)cc1Cl [Compound 214m] | 1.5 | 2200 | 33.4 | – | – | – | – | – | – |
| Cc1cc(C(=O)N[C@H]2CCC(=O)N3CCC[C@@H](C(=O)N[C@H](C=O)CC(=O)O)N3C2=O)cc(C)c1O [Compound 214w] | 0.6 | – | – | – | – | – | 370 | 15 | – |
| O=C[C@H](CC(=O)O)NC(=O)[C@@H]1CCCN2C(=O)CCN(NC(=O)c3ccccc3)C(=O)N12 [Compound 265, [3S(4S)]3-(7-Benzamido-6,10-dioxo-1,2,3,4,7,8,9,10-octahydro-6H-pyridazino[1,2-a][1,2,4]triazepine-4-carboxamido)-4-oxobutanoic acid] | – | – | – | 47 | 1400 | 20 | – | – | – |
| Cc1ccccc1C(=O)N[C@H]1CCC(=O)N2CCC[C@@H](C(=O)N[C@H](C=O)CC(=O)O)N2C1=O [Compound 404] | – | – | – | 2.9 | 1100 | 24 | – | – | – |
| O=C[C@H](CC(=O)O)NC(=O)[C@@H]1CCCN2C(=O)CC[C@H](NC(=O)c3cccc4ccccc34)C(=O)N12 [Compound 408, [3S(1S,9S)]3-[6,10-Dioxo-9-(naphth-1-oylamino)-1,2,3,4,7,8,9,10-octahydro-6H-pyridazino[1,2-a][1,2]diazepine-1-carboxamido]-4-oxobutanoic acid] | – | – | – | 0.5 | 1000 | 23 | – | – | – |
| O=C[C@H](CC(=O)O)NC(=O)[C@@H]1CCCN2C(=O)CC[C@H](NC(=O)c3ccsc3)C(=O)N12 [Compound 410] | – | – | – | 17 | 2800 | 20 | – | – | – |
| O=C[C@H](CC(=O)O)NC(=O)[C@@H]1CCCN2C(=O)CC[C@H](NC(=O)c3nccc4ccccc34)C(=O)N12 [Compound 412, [3S(1S,9S)]3-[6,10-Dioxo-9-(isoquinolin-1-oylamino)-1,2,3,4,7,8,9,10-octahydro-6H-pyridazino[1,2-a][1,2]diazepine-1-carboxamido]-4-oxobutanoic acid] | – | – | – | 1.3 | 700 | 25 | – | – | 1000 |
| O=C[C@H](CC(=O)O)NC(=O)[C@@H]1CCCN2C(=O)CC[C@H](NC(=O)c3ccc(Cl)cc3)C(=O)N12 [Compound 416] | – | – | – | 12 | 3400 | 47 | – | – | – |
| COc1cc(C(=O)N[C@H]2CCC(=O)N3CCC[C@@H](C(=O)N[C@H](C=O)CC(=O)O)N3C2=O)cc(OC)c1OC [Compound 417, [3S(1S,9S)]3-[6,10-Dioxo-1,2,3,4,7,8,9,10-octahydro-9-(3,4,5-trimethoxybenzoylamino)-6H-pyridazino[1,2-a][1,2]diazepine-1-carboxamido]-4-oxobutanoic acid] | – | – | – | 8 | 6000 | 22 | – | – | – |
| Cc1nc(C)c(C(=O)N[C@H]2CCC(=O)N3CCC[C@@H](C(=O)N[C@H](C=O)CC(=O)O)N3C2=O)s1 [Compound 423] | – | – | – | 10 | 1500 | 45 | – | – | – |
| O=C[C@H](CC(=O)O)NC(=O)[C@@H]1CCCN2C(=O)CC[C@H](NC(=O)c3ccc4nc[nH]c4c3)C(=O)N12 [Compound 434] | – | – | – | 4.9 | 1800 | 20 | – | – | 1300 |
| O=C[C@H](CC(=O)O)NC(=O)[C@@H]1CCCN2C(=O)CC[C@H](NC(=O)c3cc4ccsc4s3)C(=O)N12 [Compound 442] | – | – | – | 3.2 | 2000 | 54 | – | – | – |
| CC(=O)Nc1cccc(C(=O)N[C@H]2CCC(=O)N3CCC[C@@H](C(=O)N[C@H](C=O)CC(=O)O)N3C2=O)c1 [Compound 450, [3S(1S,9S)]3-{9-[(3-Acetamido)benzamido]-6,10-dioxo-1,2,3,4,7,8,9,10-octahydro-6H-pyridazino[1,2-a][1,2]diazepine-1-carboxamido}-4-oxobutanoic acid] | – | – | – | 5 | 2200 | 12 | – | – | 1700 |
| O=C[C@H](CC(=O)O)NC(=O)[C@@H]1CCCN2C(=O)CC[C@H](NC(=O)c3cccc(Cl)c3)C(=O)N12 [Compound 455] | – | – | – | 1.2 | 2800 | 54 | – | – | 2600 |
| CN(C)c1cccc(C(=O)N[C@H]2CCC(=O)N3CCC[C@@H](C(=O)N[C@H](C=O)CC(=O)O)N3C2=O)c1 [Compound 470] | – | – | – | 5 | 360 | 63 | – | – | 500 |
| CN(C)c1ccc(C(=O)N[C@H]2CCC(=O)N3CCC[C@@H](C(=O)N[C@H](C=O)CC(=O)O)N3C2=O)cc1 [Compound 471] | – | – | – | 1 | 400 | 17 | – | – | – |
| O=C[C@H](CC(=O)O)NC(=O)[C@@H]1CCCN2C(=O)CC[C@H](NC(=O)c3cc4ccccc4[nH]3)C(=O)N12 [Compound 475, [3S(1S,9S)]3-[6,10-Dioxo-9-(indol-2-oylamino)-1,2,3,4,7,8,9,10-octahydro-6H-pyridazino[1,2-a][1,2]diazepine-1-carboxamido]-4-oxobutanoic acid] | – | – | – | 5.5 | 400 | 21 | – | – | 350 |
| CC(C)C(=O)Nc1ccc(C(=O)N[C@H]2CCC(=O)N3CCC[C@@H](C(=O)N[C@H](C=O)CC(=O)O)N3C2=O)cc1 [Compound 484] | – | – | – | 2 | 5000 | 15 | – | – | – |
| O=C[C@H](CC(=O)O)NC(=O)[C@@H]1CCCN2C(=O)CC[C@H](NC(=O)c3ccc(NC(=O)Cc4ccccc4)cc3)C(=O)N12 [Compound 486, [3S(1S,9S)]3-{6,10-Dioxo-1,2,3,4,7,8,9,10-octahydro-9-[4-(phenylacetamido)benzamido]-6H-pyridazino[1,2-a][1,2]diazepine-1-carboxamido}-4-oxobutanoic acid] | – | – | – | 2.3 | 500 | 37 | – | – | – |
| CC(C)CC(=O)Nc1ccc(C(=O)N[C@H]2CCC(=O)N3CCC[C@@H](C(=O)N[C@H](C=O)CC(=O)O)N3C2=O)cc1 [Compound 487, [3S(1S,9S)]3-{6,10-Dioxo-9-[4-(3-methylbutan-1-oylamino)benzamido]-1,2,3,4,7,8,9,10-octahydro-6H-pyridazino[1,2-a][1,2]diazepine-1-carboxamido}-4-oxobutanoic acid] | – | – | – | 2.4 | 500 | 20 | – | – | 400 |
| COCC(=O)N1C[C@H](NC(=O)c2ccccc2)C(=O)N(CC(=O)N[C@H](C=O)CC(=O)O)c2ccccc21 [Compound 605e, (3S)-3-[(3S)-2-Oxo-3-benzoylamino-5-methoxyacetyl-2,3,4,5-tetrahydro-1H-1,5-benzodiazepin-1-acetylamino]-4-oxo-butyric acid] | – | – | – | 29 | > 10000 | 24 | – | – | – |
| CC(=O)N1C[C@H](NC(=O)c2cc(Cl)c(O)c(Cl)c2)C(=O)N(CC(=O)N[C@H](C=O)CC(=O)O)c2ccccc21 [Compound 656, (3S)-3-[(3S)-2-Oxo-3-(3,5-dichloro, 4-hydroxybenzoyl)amino-5-acetyl-2,3,4,5-tetrahydro-1H-1,5-benzodiazepine-1-acetylamino-]4-oxo-butyric acid] | 0.6 | 1600 | 2.9 | – | – | – | – | – | – |
